Patent US5378690A, “New renin-inhibitory oligopeptides, their preparation and their use” (Sankyo Company, Limited, priority 1986, dated 1995)

Biological target: T1, human renin (Homo sapiens, UniProt P00797)
T1 sequence (P00797 67-406): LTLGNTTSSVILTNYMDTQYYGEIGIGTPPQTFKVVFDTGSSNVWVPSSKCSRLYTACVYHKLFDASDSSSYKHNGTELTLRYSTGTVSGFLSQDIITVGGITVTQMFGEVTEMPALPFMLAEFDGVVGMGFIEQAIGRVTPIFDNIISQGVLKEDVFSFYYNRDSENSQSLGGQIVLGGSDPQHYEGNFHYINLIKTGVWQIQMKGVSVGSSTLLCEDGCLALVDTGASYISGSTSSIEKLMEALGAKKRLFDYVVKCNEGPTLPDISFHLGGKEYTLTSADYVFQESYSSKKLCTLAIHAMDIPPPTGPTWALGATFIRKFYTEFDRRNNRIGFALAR
Assay: Inhibition of renin activity
Type: biochemical
Conditions: 1×10^-6 M of the test compound, sheep angiotensinogen, pH 7.3, 10 minutes at 37° C., mean of 3 or 4 experiments
Procedure: The ability of various compounds of the invention to inhibit the activity of renin was determined according to the following method, which follows essentially the procedure of Kokubu et al. [Hypertension, 5, 191-197 (1983)].
Specifically, each test compound was dissolved in 60% v/v aqueous ethanol. Human renin activity in the presence and absence of each compound was measured using sheep angiotensinogen. The total volume of 1 ml of assay mixture contained 0.1 mole/litre phosphate buffer (pH 7.3), human renin (equivalent to 0.5 ng angiotensin I per ml per minute), sheep angiotensinogen (equivalent to 200 ng angiotensin I) 1×10^-6 M of the test compound, 6% v/v ethanol and angiotensinase inhibitors (10 mmole/litre sodium ethylenediaminetetraacetate and 3.4 mmole/litre 8-hydroxyquinoline). The mixture was allowed to react for 10 minutes at 37° C., and then the reaction was stopped by placing the reaction tube in a boiling water bath for 5 minutes. The mixture was then centrifuged and the supernatant (0.05-0.1 ml) was used to assay remaining angiotensin I.
An identical experiment was carried out, as a control, except that the test compound was omitted. From the values obtained were calculated the % inhibition of renin activity achieved by each test compound. The results are shown in the following Table 9, in which the compounds of the invention are identified by the numbers of the Examples given hereafter in which are described their preparation. The values given are the mean of 3 or 4 experiments.

| Inhibitory Activity (%) | Compound |
| --- | --- |
| 98.2% | CCC(C)[C@@H](CO)NC(=O)C[C@H](O)[C@H](CC1CCCCC1)NC(=O)[C@H](Cc1cscn1)NC(=O)[C@@H](CC(=O)N1CCOCC1)Cc1cccc2ccccc12 (some centres unmarked) [Example 31] |
| 91.2% | O=C(C[C@H](O)[C@H](CC1CCCCC1)NC(=O)C(Cc1cscn1)NC(=O)[C@H](Cc1cccc2ccccc12)NC(=O)CN1CCOCC1)NCCN1CCCC1 (mixture of isomers) [Example 43, N-{N-[N-Morpholinoacetyl-3-(1-naphthyl)-L-alanyl]-(4-thiazolyl)-DL-alanyl]-cyclostatin-2-(1-pyrrolidinylethyl)amide] |
| 94.0% | N-{N-[(2R)-2-(1-Naphthylmethyl)-3-thiomorpholinocarbonylpropionyl]-3-(4-thiazolyl)-DL-alanyl}-cyclostatin-(2-morpholinoethyl)amide [Example 9] |
| 97.5% | CCN(CC(=O)N[C@@H](Cc1cccc2ccccc12)C(=O)N[C@@H](Cc1cscn1)C(=O)N[C@@H](CC1CCCCC1)[C@@H](O)CC(=O)NCCN1CCOCC1)Cc1ccccc1 [Example 64, N-{N-[N-(N-Benzyl-N-ethylaminoacetyl)-3-(1-naphthyl)-L-alanyl]-3-(4-thiazolyl)-L-alanyl}-cyclostatin-(2-morpholinoethyl)amide] |
| 96.3% | O=C(C[C@H](O)[C@H](CC1CCCCC1)NC(=O)C(Cc1cscn1)NC(=O)[C@@H](CC(=O)N1CCN(c2ccccc2)CC1)Cc1cccc2ccccc12)NCCN1CCOCC1 (mixture of isomers) [Example 15, N-{N-[(2R)-2-(1-Naphthylmethyl)-3-(4-phenyl-1-piperazinylcarbonyl)propionyl]-3-(4-thiazolyl)-DL-alanyl}-cyclostatin-(2-morpholinoethyl)amide] |
